Experimental data reported in ChEMBL document CHEMBL2074362, “Lithocholic acid decreases expression of bile salt export pump through farnesoid X receptor antagonist activity” (J Biol Chem, 2002).

Biological target: Bile salt export pump (Homo sapiens, UniProt O95342)
Test: TP_TRANSPORTER: Taq-Man PCR in vitro, primary hepatocytes
Type: functional, cell-based, Hepatocyte

Bile salt export pump, sequence (O95342 whole entry): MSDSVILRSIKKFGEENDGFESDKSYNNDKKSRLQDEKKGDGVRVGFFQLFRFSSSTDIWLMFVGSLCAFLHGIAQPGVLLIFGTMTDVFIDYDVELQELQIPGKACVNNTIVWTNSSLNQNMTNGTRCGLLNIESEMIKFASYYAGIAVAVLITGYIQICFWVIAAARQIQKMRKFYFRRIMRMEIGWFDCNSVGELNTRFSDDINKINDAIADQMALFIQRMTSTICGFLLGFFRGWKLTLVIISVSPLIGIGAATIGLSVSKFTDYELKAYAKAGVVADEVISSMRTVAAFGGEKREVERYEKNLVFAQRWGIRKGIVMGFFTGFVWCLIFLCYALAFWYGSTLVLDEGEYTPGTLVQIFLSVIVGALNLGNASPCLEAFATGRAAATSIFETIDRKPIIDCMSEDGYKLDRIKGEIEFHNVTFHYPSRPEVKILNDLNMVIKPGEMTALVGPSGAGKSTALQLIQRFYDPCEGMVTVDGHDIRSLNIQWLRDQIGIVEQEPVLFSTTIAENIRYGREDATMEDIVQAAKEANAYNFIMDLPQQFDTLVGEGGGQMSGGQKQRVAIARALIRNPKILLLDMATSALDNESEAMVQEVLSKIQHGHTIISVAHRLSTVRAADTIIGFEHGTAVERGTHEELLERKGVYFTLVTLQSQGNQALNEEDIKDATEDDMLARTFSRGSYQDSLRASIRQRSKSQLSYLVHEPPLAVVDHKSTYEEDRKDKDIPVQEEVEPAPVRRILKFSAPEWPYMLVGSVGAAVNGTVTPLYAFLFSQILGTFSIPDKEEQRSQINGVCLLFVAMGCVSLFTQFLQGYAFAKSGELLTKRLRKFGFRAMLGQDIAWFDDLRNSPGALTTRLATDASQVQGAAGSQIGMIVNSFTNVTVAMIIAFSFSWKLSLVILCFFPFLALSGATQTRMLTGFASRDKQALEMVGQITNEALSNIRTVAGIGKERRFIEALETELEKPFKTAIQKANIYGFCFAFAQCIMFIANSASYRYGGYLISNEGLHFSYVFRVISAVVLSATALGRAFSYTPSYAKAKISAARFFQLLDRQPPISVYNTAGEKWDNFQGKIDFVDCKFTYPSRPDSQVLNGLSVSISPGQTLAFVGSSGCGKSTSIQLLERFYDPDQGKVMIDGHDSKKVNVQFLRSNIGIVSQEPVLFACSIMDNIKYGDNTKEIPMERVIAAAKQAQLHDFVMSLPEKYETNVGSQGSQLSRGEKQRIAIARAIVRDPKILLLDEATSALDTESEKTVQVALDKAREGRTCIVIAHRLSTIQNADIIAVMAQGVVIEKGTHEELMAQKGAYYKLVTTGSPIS

- Activity: inducer [+]
Compound: CC(C)c1onc(-c2c(Cl)cccc2Cl)c1COc1ccc(/C=C/c2cccc(C(=O)O)c2)c(Cl)c1
